Source: US20080009418A1, “Selective Inhibitors” (Alchemia LTD., priority 2004, published 2008)

Experiments:
[1] = biological target: T1, Human δ-opioid (DOP) (Homo sapiens, UniProt P41143); assay: Radioligand binding, human δ-opioid (DOP) membranes, FlashPlate, [3H]-Bremazocine; details: compound at 10 μM, [3H]-Bremazocine
T1 construct: purchased Perkin Elmer Biosignal
Procedure, shortened: (§1)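 Cloned human receptor membranes were coated onto FlashPlate wells and incubated with radioligand and compound (added from a 0.5 mM DMSO daughter plate) for 1 hour at room temperature in the dark. Scintillation counting gave percent inhibition, with DMSO defining total and reference ligand defining non-specific binding.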

[2] = biological target: T2, Human κ-Opioid (KOP) (Homo sapiens, UniProt P41145); assay: Radioligand binding, human κ-opioid (KOP) membranes, filtration, [3H]-Diprenorphine; details: compound at 10 μM, [3H]-Diprenorphine
T2 construct: purchased Perkin Elmer Biosignal
Procedure, shortened: (§2)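 Percent inhibition of radioligand binding measured on recombinant human membranes: NK1 with [125I]-Substance P, KOP with [3H]-Diprenorphine. Incubation 1 h at room temperature, then harvest onto 0.3% PEI-soaked filters, cold Tris-HCl pH 7.4 washes and scintillation counting; non-specific binding from reference ligand wells.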

[3] = biological target: T3, Human Melanocortin (MC3) (Homo sapiens, UniProt P41968); assay: Radioligand binding, human melanocortin MC3 membranes, FlashPlate, [125I]-NDP-αMSH; details: compound at 10 μM, [125I]-NDP-αMSH
T3 construct: purchased Perkin Elmer Biosignal
Procedure, shortened: as §1

[4] = biological target: T4, Human Melanocortin (MC4) (Homo sapiens, UniProt P32245); assay: Radioligand binding, human melanocortin MC4 membranes, FlashPlate, [125I]-NDP-αMSH; details: compound at 10 μM, [125I]-NDP-αMSH; for A4: inhibition of radioligand binding, human melanocortin (MC4): 10 µM
T4 construct: purchased Perkin Elmer Biosignal
Procedure, shortened: as §1

[5] = biological target: T5, Human melanocortin (MC5) (Homo sapiens, UniProt P33032); assay: Radioligand binding, human melanocortin MC5 membranes, FlashPlate, [125I]-NDP-αMSH; details: compound at 10 μM, [125I]-NDP-αMSH
T5 construct: purchased Perkin Elmer Biosignal
Procedure, shortened: as §1

[6] = biological target: T6, Human melanin-concentrating hormone (MCH1) (Homo sapiens, UniProt Q99705); assay: Radioligand binding, human melanin-concentrating hormone MCH1 membranes, FlashPlate, [125I]-S36057; details: compound at 10 μM
T6 construct: purchased Perkin Elmer Biosignal
Procedure, shortened: as §1

[7] = biological target: T7, Human μ-opioid (MOP) (Homo sapiens, UniProt P35372); assay: Radioligand binding, human μ-opioid (MOP) membranes, FlashPlate, [3H]-Naloxone; details: compound at 10 μM, [3H]-Naloxone
T7 construct: purchased Perkin Elmer Biosignal
Procedure, shortened: as §1

[8] = biological target: T8, Human neurokinin (NK1) (Homo sapiens, UniProt P25103); assay: Radioligand binding, human neurokinin NK1 membranes, filtration, [125I]-Substance P; details: compound at 10 μM, [125I]-Substance P
T8 construct: purchased Perkin Elmer Biosignal
Procedure, shortened: as §2

[9] = biological target: T9, Human neuropeptide Y (NPY-Y1) (Homo sapiens, UniProt P25929); assay: Radioligand binding, human neuropeptide Y NPY-Y1 membranes, FlashPlate, [125I]-PYY; details: compound at 10 μM, [125I]-PYY
T9 construct: purchased Perkin Elmer Biosignal
T9 sequence (P25929 1-384): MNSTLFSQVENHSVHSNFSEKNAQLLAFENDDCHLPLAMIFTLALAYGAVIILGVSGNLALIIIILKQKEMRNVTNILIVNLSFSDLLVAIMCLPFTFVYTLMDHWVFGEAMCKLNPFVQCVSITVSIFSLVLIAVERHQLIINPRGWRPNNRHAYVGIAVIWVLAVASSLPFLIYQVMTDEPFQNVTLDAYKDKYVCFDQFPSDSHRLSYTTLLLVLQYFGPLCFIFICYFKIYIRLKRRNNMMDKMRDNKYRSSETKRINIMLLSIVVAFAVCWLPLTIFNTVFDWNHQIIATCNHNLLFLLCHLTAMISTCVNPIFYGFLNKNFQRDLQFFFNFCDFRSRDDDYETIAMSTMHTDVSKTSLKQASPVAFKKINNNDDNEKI
Procedure, shortened: as §1

[10] = biological target: T10, Human opioid (ORL1) (Homo sapiens, UniProt P41146); assay: Radioligand binding, human opioid ORL1 membranes, FlashPlate, [125I]-Nociceptin; details: compound at 10 μM, [125I]-Nociceptin
T10 construct: purchased Perkin Elmer Biosignal
Procedure, shortened: as §1

[11] = biological target: T11, Mouse urotensin (mUR2) (Mus musculus, UniProt Q8VIH9); assay: Radioligand binding, mouse urotensin mUR2 membranes, FlashPlate, [125I]-Urotensin II; details: compound at 10 μM, [125I]-Urotensin II
T11 construct: purchased Perkin Elmer Biosignal
T11 sequence (Q8VIH9 1-385): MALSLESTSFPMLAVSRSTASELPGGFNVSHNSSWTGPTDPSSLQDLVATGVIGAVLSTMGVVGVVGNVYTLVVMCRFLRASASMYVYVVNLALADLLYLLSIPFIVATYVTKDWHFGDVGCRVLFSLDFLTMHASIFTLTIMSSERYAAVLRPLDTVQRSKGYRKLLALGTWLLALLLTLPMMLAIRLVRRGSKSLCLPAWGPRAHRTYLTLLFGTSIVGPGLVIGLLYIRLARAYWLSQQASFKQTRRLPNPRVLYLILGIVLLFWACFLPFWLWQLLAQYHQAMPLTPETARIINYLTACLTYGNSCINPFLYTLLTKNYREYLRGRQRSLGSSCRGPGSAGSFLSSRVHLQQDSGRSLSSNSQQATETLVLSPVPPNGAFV
Procedure, shortened: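 Cloned mouse urotensin (mUR2) receptor membranes from Perkin Elmer Biosignal were immobilized in FlashPlate microplates using a proprietary coating. Each well got 19.5 μl buffer, then 0.5 μl of DMSO, reference ligand, or compound. Adding 5 μl of [125I]-Urotensin II, diluted to 5× final concentration in binding buffer, started binding. Plates were sealed with TopSeal-A and incubated 1 hour at room temperature in the dark. Wells were counted for 30 seconds each on a TopCount after a 60-second delay, and percentage inhibition was calculated.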

T2 sequence (P41145 whole entry): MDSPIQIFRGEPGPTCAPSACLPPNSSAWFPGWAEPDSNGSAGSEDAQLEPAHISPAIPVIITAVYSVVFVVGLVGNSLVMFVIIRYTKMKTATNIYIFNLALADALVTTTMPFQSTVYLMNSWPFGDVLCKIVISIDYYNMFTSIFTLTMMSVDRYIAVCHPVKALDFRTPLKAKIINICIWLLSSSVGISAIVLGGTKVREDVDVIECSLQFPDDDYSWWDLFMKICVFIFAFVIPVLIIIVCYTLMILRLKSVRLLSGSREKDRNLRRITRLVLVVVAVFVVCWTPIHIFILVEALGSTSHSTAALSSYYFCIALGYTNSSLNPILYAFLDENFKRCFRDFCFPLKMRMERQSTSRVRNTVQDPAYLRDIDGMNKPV
T3 sequence (P41968 whole entry): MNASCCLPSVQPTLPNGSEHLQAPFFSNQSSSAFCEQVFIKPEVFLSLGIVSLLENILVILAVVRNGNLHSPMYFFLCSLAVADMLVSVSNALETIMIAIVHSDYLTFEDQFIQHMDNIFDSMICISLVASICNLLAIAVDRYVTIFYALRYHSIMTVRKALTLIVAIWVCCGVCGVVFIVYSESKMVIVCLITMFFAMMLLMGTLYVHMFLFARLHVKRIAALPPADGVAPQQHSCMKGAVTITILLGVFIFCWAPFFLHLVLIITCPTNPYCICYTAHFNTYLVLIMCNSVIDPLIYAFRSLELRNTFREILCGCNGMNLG
T6 sequence (Q99705 whole entry): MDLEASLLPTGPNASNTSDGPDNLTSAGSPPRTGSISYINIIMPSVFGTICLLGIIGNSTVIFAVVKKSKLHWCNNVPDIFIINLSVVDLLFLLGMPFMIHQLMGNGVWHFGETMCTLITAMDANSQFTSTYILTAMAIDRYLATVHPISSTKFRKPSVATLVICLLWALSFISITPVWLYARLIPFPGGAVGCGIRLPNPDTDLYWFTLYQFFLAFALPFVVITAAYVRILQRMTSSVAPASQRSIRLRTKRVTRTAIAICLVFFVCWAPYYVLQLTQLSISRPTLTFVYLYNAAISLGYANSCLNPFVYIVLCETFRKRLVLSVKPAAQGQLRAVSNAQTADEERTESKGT
T7 sequence (P35372 whole entry): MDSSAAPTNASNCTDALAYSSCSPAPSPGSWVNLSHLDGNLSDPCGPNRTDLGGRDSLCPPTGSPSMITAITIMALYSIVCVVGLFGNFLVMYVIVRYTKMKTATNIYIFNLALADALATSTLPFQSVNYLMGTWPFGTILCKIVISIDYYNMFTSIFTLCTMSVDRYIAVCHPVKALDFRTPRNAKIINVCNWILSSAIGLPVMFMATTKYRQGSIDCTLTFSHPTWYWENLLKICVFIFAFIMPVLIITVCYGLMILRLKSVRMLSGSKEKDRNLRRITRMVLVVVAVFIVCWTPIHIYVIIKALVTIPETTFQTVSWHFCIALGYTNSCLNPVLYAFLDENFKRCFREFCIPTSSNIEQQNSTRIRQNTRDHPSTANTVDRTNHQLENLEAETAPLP
T8 sequence (P25103 whole entry): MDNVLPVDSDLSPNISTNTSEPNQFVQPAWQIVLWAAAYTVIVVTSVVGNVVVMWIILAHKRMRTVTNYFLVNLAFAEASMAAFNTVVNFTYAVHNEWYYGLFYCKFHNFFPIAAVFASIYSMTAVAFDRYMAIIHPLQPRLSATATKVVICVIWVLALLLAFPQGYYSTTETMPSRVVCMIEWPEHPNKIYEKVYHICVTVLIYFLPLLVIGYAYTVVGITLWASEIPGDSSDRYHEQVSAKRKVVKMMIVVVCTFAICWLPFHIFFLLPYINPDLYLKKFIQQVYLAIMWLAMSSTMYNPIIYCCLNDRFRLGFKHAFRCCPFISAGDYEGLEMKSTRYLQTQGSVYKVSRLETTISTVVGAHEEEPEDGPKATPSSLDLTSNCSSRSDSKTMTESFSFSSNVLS
T1 sequence (P41143 whole entry): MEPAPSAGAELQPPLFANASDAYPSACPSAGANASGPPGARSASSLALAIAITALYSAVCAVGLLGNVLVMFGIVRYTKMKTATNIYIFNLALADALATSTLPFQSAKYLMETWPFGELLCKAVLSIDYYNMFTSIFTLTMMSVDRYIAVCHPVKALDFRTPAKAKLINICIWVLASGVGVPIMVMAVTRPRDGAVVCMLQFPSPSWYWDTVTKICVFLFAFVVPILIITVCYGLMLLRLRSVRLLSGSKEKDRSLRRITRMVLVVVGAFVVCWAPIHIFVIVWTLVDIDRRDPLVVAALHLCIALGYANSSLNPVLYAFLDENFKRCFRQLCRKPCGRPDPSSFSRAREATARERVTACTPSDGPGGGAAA
T5 sequence (P33032 whole entry): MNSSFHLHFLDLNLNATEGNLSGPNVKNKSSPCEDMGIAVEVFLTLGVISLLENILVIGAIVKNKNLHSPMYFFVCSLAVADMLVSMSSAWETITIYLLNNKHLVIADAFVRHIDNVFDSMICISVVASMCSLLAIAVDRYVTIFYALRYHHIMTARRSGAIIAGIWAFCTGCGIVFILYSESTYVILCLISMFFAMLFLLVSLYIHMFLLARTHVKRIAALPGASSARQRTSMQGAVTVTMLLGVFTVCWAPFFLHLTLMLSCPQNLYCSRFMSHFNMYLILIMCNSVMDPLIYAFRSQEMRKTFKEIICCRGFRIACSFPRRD
T10 sequence (P41146 whole entry): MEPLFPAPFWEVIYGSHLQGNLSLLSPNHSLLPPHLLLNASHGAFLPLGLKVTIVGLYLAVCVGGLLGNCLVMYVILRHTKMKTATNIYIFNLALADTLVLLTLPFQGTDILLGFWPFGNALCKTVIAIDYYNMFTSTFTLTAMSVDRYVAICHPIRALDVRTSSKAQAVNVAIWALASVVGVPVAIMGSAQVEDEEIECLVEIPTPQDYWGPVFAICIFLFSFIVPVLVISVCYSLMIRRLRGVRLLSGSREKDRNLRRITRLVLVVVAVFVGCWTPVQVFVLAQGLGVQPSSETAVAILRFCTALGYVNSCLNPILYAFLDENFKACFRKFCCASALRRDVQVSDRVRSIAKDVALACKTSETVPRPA
T4 sequence (P32245 whole entry): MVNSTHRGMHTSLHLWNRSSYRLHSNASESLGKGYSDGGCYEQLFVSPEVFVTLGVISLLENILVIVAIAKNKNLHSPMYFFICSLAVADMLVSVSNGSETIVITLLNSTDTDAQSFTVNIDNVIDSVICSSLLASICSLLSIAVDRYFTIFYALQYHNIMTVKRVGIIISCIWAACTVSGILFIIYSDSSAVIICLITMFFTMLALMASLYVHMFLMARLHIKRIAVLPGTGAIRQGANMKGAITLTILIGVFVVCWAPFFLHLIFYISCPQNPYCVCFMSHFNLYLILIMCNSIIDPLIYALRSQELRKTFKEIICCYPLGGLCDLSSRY

COCC1OC(OCc2ccc3ccccc3c2)C(NC(=O)CCCN)C(OCc2ccc(Cl)cc2)C1O (stereo not shown) [compound 239]
A1: inhibition of radioligand binding ([1]; FlashPlate): − (“−” indicates less than 50% inhibition at 10 μM)
A2: inhibition of radioligand binding ([2]; filtration): − (“−” indicates less than 50% inhibition at 10 μM)
A3: inhibition of radioligand binding ([3]; FlashPlate): − (“−” indicates less than 50% inhibition at 10 μM)
A4: inhibition of radioligand binding ([4]; FlashPlate): − (“−” indicates less than 50% inhibition at 10 μM)
A5: inhibition of radioligand binding ([5]; FlashPlate): + (“+” indicates greater than 50% inhibition at 10 μM)
A6: inhibition of radioligand binding ([6]; [125I]-S36057, FlashPlate): − (“−” indicates less than 50% inhibition at 10 μM)
A7: inhibition of radioligand binding ([7]; FlashPlate): − (“−” indicates less than 50% inhibition at 10 μM)
A8: inhibition of radioligand binding ([8]; filtration): + (“+” indicates greater than 50% inhibition at 10 μM)
A9: inhibition of radioligand binding ([9]; FlashPlate): − (“−” indicates less than 50% inhibition at 10 μM)
A10: inhibition of radioligand binding ([10]; FlashPlate): − (“−” indicates less than 50% inhibition at 10 μM)
A11: inhibition of radioligand binding ([11]; FlashPlate): − (“−” indicates less than 50% inhibition at 10 μM)

NCCC(=O)NC1C(OCc2ccc(Cl)cc2)OC(COCc2ccc(Cl)cc2)C(O)C1OCc1ccccc1 (single isomer, unassigned) [compound 487]
A1: inhibition of radioligand binding, human δ-opioid (DOP) [1]: − (“−” indicates less than 50% inhibition at 10 μM)
A2: inhibition of radioligand binding, human κ-opioid (KOP) [2]: − (“−” indicates less than 50% inhibition at 10 μM)
A3: inhibition of radioligand binding, human melanocortin (MC3) [3]: − (“−” indicates less than 50% inhibition at 10 μM)
A4: inhibition of radioligand binding, human melanocortin (MC4) [4]: − (“−” indicates less than 50% inhibition at 10 μM)
A5: inhibition of radioligand binding, human melanocortin (MC5) [5]: + (“+” indicates greater than 50% inhibition at 10 μM)
A6: inhibition of radioligand binding, human melanin-concentrating hormone (MCH1) ([6]; [125I]-S36057): − (“−” indicates less than 50% inhibition at 10 μM)
A7: inhibition of radioligand binding, human μ-opioid (MOP) ([7]; 10 µM): + (“+” indicates greater than 50% inhibition at 10 μM)
A8: inhibition of radioligand binding, human neurokinin (NK1) ([8]; 10 µM): − (“−” indicates less than 50% inhibition at 10 μM)
A9: inhibition of radioligand binding, human neuropeptide Y (NPY-Y1) [9]: − (“−” indicates less than 50% inhibition at 10 μM)
A10: inhibition of radioligand binding, human opioid (ORL1) ([10]; 10 µM): − (“−” indicates less than 50% inhibition at 10 μM)
A11: inhibition of radioligand binding, mouse urotensin (mUR2) [11]: − (“−” indicates less than 50% inhibition at 10 μM)

N=C(N)NCCC(=O)NC1C(OCc2ccc(-c3ccccc3)cc2)OC(COCc2ccc(Cl)cc2)C(O)C1OCc1ccc(Cl)cc1 (stereo not shown) [compound 410]
A1: inhibition of radioligand binding ([1]; human DOP membranes): − (“−” indicates less than 50% inhibition at 10 μM)
A2: inhibition of radioligand binding ([2]; human KOP membranes): − (“−” indicates less than 50% inhibition at 10 μM)
A3: inhibition of radioligand binding ([3]; human MC3 membranes): + (“+” indicates greater than 50% inhibition at 10 μM)
A4: inhibition of radioligand binding ([4]; human MC4 membranes): + (“+” indicates greater than 50% inhibition at 10 μM)
A5: inhibition of radioligand binding ([5]; human MC5 membranes): + (“+” indicates greater than 50% inhibition at 10 μM)
A6: inhibition of radioligand binding ([6]; [125I]-S36057, human MCH1 membranes): + (“+” indicates greater than 50% inhibition at 10 μM)
A7: inhibition of radioligand binding ([7]; human MOP membranes): − (“−” indicates less than 50% inhibition at 10 μM)
A8: inhibition of radioligand binding ([8]; human NK1 membranes): + (“+” indicates greater than 50% inhibition at 10 μM)
A9: inhibition of radioligand binding ([9]; human NPY-Y1 membranes): − (“−” indicates less than 50% inhibition at 10 μM)
A10: inhibition of radioligand binding ([10]; human ORL1 membranes): + (“+” indicates greater than 50% inhibition at 10 μM)
A11: inhibition of radioligand binding ([11]; mouse mUR2 membranes): − (“−” indicates less than 50% inhibition at 10 μM)

N=C(N)NCCC(=O)N[C@H]1C(OCc2ccc(Cl)cc2)O[C@H](COCc2ccccc2)[C@@H](O)[C@@H]1OCc1ccc(Cl)cc1 (stereo partly shown) [compound 525]
A1: inhibition of radioligand binding, human δ-opioid (DOP) [1]: − (“−” indicates less than 50% inhibition at 10 μM)
A2: inhibition of radioligand binding, human κ-opioid (KOP) ([2]; 10 µM): + (“+” indicates greater than 50% inhibition at 10 μM)
A3: inhibition of radioligand binding, human melanocortin (MC3) ([3]; 10 µM): + (“+” indicates greater than 50% inhibition at 10 μM)
A4: inhibition of radioligand binding, human melanocortin (MC4) [4]: + (“+” indicates greater than 50% inhibition at 10 μM)
A5: inhibition of radioligand binding, human melanocortin (MC5) [5]: + (“+” indicates greater than 50% inhibition at 10 μM)
A6: inhibition of radioligand binding, human melanin-concentrating hormone (MCH1) ([6]; [125I]-S36057): + (“+” indicates greater than 50% inhibition at 10 μM)
A7: inhibition of radioligand binding, human μ-opioid (MOP) [7]: − (“−” indicates less than 50% inhibition at 10 μM)
A8: inhibition of radioligand binding, human neurokinin (NK1) [8]: + (“+” indicates greater than 50% inhibition at 10 μM)
A9: inhibition of radioligand binding, human neuropeptide Y (NPY-Y1) [9]: − (“−” indicates less than 50% inhibition at 10 μM)
A10: inhibition of radioligand binding, human opioid (ORL1) [10]: − (“−” indicates less than 50% inhibition at 10 μM)
A11: inhibition of radioligand binding, mouse urotensin (mUR2) [11]: − (“−” indicates less than 50% inhibition at 10 μM)

CO[C@H]1[C@H](O)[C@@H](COCc2ccc(-c3ccccc3)cc2)OC(OCc2ccc(Cl)cc2)[C@@H]1NC(=O)CCCNC(=N)N (stereo partly shown) [compound 96]
A1 radioligand binding, percentage inhibition [1]: − (“−” indicates less than 50% inhibition at 10 μM)
A2 radioligand binding, percentage inhibition [2]: + (“+” indicates greater than 50% inhibition at 10 μM)
A3 radioligand binding, percentage inhibition [3]: + (“+” indicates greater than 50% inhibition at 10 μM)
A4 radioligand binding, percentage inhibition [4]: + (“+” indicates greater than 50% inhibition at 10 μM)
A5 radioligand binding, percentage inhibition [5]: + (“+” indicates greater than 50% inhibition at 10 μM)
A6 radioligand binding, percentage inhibition ([6]; [125I]-S36057): + (“+” indicates greater than 50% inhibition at 10 μM)
A7 radioligand binding, percentage inhibition [7]: − (“−” indicates less than 50% inhibition at 10 μM)
A8 radioligand binding, percentage inhibition [8]: + (“+” indicates greater than 50% inhibition at 10 μM)
A9 radioligand binding, percentage inhibition [9]: + (“+” indicates greater than 50% inhibition at 10 μM)
A10 radioligand binding, percentage inhibition [10]: + (“+” indicates greater than 50% inhibition at 10 μM)
A11 radioligand binding, percentage inhibition [11]: − (“−” indicates less than 50% inhibition at 10 μM)
